Test results taken from EP4635945A1, “CRYSTAL FORM OF PROXIMOD, PREPARATION METHOD THEREFOR, AND USE THEREOF” (Jiankuan (Suzhou) Biotechnology Co., Ltd, priority 2022, dated 2024).

Assay: Solid-state stability of crystal forms on storage (XRPD, purity)
Format: physicochemical
Settings: for Maximum single impurity after storage / Crystal form after storage / Main purity after storage: 30 days, exposed; for Time the crystal form remains stable: at 60 °C, 92.5% RH, and 45 °C/75% RH
Method: The crystal forms of the samples before and after storage were tested by XRPD.

| Maximum single impurity after storage (At 40 °C/75% RH) | Crystal form after storage (At 40 °C/75% RH, hydrochloride) | Main purity after storage (At 40 °C/75% RH, hydrochloride) | Maximum single impurity after storage (At 60 °C) | Crystal form after storage (At 60 °C, hydrochloride) | Main purity after storage (At 60 °C, hydrochloride) | Maximum single impurity after storage (At 92.5%RH) | Crystal form after storage (At 92.5%RH, hydrochloride) | Main purity after storage (At 92.5%RH, hydrochloride) | Maximum single impurity before storage | Main purity before storage (hydrochloride) | Crystal form after storage (In light, hydrochloride) | Main purity after storage (In light, hydrochloride) | Maximum single impurity after storage (In light, hydrochloride) | Time the crystal form remains stable | Structure (SMILES) |
| --- | --- | --- | --- | --- | --- | --- | --- | --- | --- | --- | --- | --- | --- | --- | --- |
| Maximum single impurity: 0.04 A% | Crystal form A | Main purity: 99.82 A% | Maximum single impurity: 0.04 A% | Crystal form A | Main purity: 99.80 A% | Maximum single impurity: 0.04 A% | Crystal form A | Main purity: 99.81 A% | Maximum single impurity: 0.04 A% | Main purity: 99.79 A% | Crystal form A | Main purity: 98.83 A% | Maximum single impurity: 0.43 A% | at least 30 days | CCCc1nc(-c2ccc(-c3ccc(CCC(N)(CO)CO)cc3)cc2)co1.Cl [Crystal form A, 2-amino-2-{2-(4'-(2-propyloxazol-4-yl)-[1,1'-biphenyl]-4-yl)ethyl}-1,3-propanediol hydrochloride] |
| Maximum single impurity: 0.04 A% | Crystal form B | Main purity: 99.80 A% | Maximum single impurity: 0.04 A% | Crystal form B | Main purity: 99.79 A% | Maximum single impurity: 0.04 A% | Crystal form B | Main purity: 99.83 A% | Maximum single impurity: 0.04 A% | Main purity: 99.78 A% | Crystal form B | Main purity: 99.19 A% | Maximum single impurity: 0.21 A% | at least 30 days | CCCc1nc(-c2ccc(-c3ccc(CCC(N)(CO)CO)cc3)cc2)co1.Cl [Crystal form B, 2-amino-2-{2-(4'-(2-propyloxazol-4-yl)-[1,1'-biphenyl]-4-yl)ethyl}-1,3-propanediol hydrochloride] |
